Assay results reported in patent publication US20120294869A1, “Methods for Treating Fatty Liver Disease” (Nevada Cancer Institute, priority 2011, published 2012).
Where two headings read alike, the source gives them in different places. One block for each compound: values may come before it.

Assays:
[1] = Fate of an i.p. tracer dose of [3H]Urd in mouse plasma; format: in vivo; conditions: for half-life: plasma, ip
From the text: The UPP-1-KO mouse was created by replacing a 2.5 kb fragment of the UPP-1 gene (including exons 4 and 5) with a 1.6 kb neomycin resistance expression cassette. See, e.g., Cao, D. et al. (2002) Cancer Res. 62: 2313-2317 and Cao, D. et al. (2005) J. Biol. Chem. 280: 21169-21175. […] The absence of UPP-1 phosphorolytic (UPase) activity was confirmed by determining the fate of a tracer dose (25 μCi/mouse) of [^3H]Urd injected intraperitoneally (i.p.) in mice. A very rapid disappearance of [^3H]Urd from the plasma of wild-type (WT) mice was observed, with a t1/2, of approximately […] due to active phosphorolysis.
Enzymatic activity in liver was 10.7±0.3 nmol/hr/mg for the WT animals compared to 252±68 nmol/hr/mg for the transgenic. In WT mice, a tracer dose of [^3H]Urd (25 μCi, i.p.) was rapidly degraded with a t1/2, of approximately 4 minutes. […] Table 1 summarizes the concentrations of URD in WT C57BL/6 mice, the UPP-1-KO and the UPP-1-TG models.

UPP-2 = conditions: mouse liver tissue; cited from earlier work
[2] = tested on: Primary hepatocytes from UPP-1-TG mice; assay: Intracellular lipid droplet accumulation in primary hepatocytes (CARS); format: cell-based, mouse; conditions: UPP-1-TG primary hepatocytes, 24 hour incubation, 100 μM Urd
From the text: (B) is a bar graph representing quantitative analysis of intracellular lipid level in 15 isolated hepatocytes from each group. Intracellular lipid level is defined as the square root of the CARS signal arising from the intracellular lipid droplets of each hepatocyte. Intracellular lipid level is normalized to 1 for WT hepatocytes.
To further confirm our results and to provide a more practical in vitro method, short term cultures of primary liver hepatocytes were generated. WT and UPP-1-TG mouse hepatocytes were isolated using a two-step collagenase perfusion technique initially described by Seglen (Seglen, P.O. (1976) Methods Cell Biol. 13: 29-83). Viability ranged from 80-90% as determined by trypan blue exclusion. Hepatocyte enrichment reached approximately 85-90%. Cells were monitored for albumin expression through 72 hours, with no discernible differences when compared to the initial isolation.

UPP-1-TG mice [3] = assay: Raman spectroscopy of lipid-chain unsaturation in liver lipid droplets; format: in vivo, mouse; conditions: UPP-1-TG mice fed with Urd
From the text: Red and blue arrows point to 1445 cm^−1 and 1660 cm^−1 peaks, respectively. (B) is a graph showing that 11660/11445 is linearly dependent on lipid-chain unsaturation. (C) is a bar graph depicting lipid-chain unsaturation of liver lipid droplets as a function of WT and UPP-1-TG mice. Error bars represent standard deviation across 18 lipid droplets measured.
In control UPP-1-TG mice, the value of 11660/11445, which is a reliable measure of lipid-chain unsaturation (FIG. 4A-B; Rinia, H. A., et al (2008) Biophysical Journal 95: 4908-4914, 2008), was 1.05 (FIG. 4C). In UPP-1-TG mice fed with Urd, the 11660/11445 value of liver lipid droplets was 0.3. The 11660/11445 value of liver lipid droplets was 0.8 for control WT mice.

UPP-1-TG mice [4] = assay: CARS imaging of liver lipid accumulation after dietary Urd supplementation; format: in vivo, mouse; conditions: Urd 2 to 5% in dry diet
From the text: Images are presented as 3-D stacks. (B) is a bar graph representing quantitative analysis of liver lipid in 18 probed volumes with xyz dimensions of 125×125×25 μm. Three mice per group were used for analysis. Lipid level is defined as the square root of the CARS signal arising from the lipid droplets. Lipid level is normalized to 1 for WT mice. Error bars represent the standard deviations. (C) is a graph depicting Raman spectroscopy analysis of lipid droplet composition.
Using CARS microscopy to image 100-micron thick sections of explanted liver tissues, the effect of the disruption of URD homeostasis on liver lipids was evaluated. As reprinted in FIG. 1, a dramatic difference in liver lipid accumulation among WT, UPP-1-KO and UPP-1-TG mice was observed. […] To confirm the results obtained through CARS microscopy, Oil Red O staining (specific for neutral triglycerides and lipids) of the frozen liver sections was conducted, which yielded similar results to the CARS technology (data not shown).

half-life ([1]; C57BL/6, mouse, 25 μCi/mouse, wild-type (WT) mice, tracer dose 25 μCi/mouse i.p., read-out: [3H]Urd plasma t1/2): ~4 min
[3H]Urd detectability after administration ([1]; UPP-1-TG (ubiquitous UPP-1 transgenic), mouse, in vivo, 15 minutes): no [^3H]Urd detectable
half-life ([1]; UPP-1-TG (ubiquitous UPP-1 transgenic), mouse, 25 μCi, UPP-1-TG mice, tracer dose 25 μCi i.p., read-out: [3H]Urd t1/2): < 0.5 min
half-life ([1]; mouse, 25 μCi/mouse, UPP-1-KO mice, tracer dose 25 μCi/mouse i.p., read-out: [3H]Urd plasma t1/2): 15 to 18 min
SMILES: O=c1ccn([C@@H]2O[C@H](CO)[C@@H](O)[C@H]2O)c(=O)[nH]1 [[^3H]Urd]

SMILES: O=S(=O)(c1ccccc1)N(CC(F)(F)F)c1ccc(C(O)(C(F)(F)F)C(F)(F)F)cc1 [T0901317]
effect on UPP-2 expression in mouse liver (UPP-2): potent induction

SMILES: O=c1ccn([C@@H]2O[C@H](CO)[C@@H](O)[C@H]2O)c(=O)[nH]1 [Urd, uridine]
reduction in intracellular lipid droplet accumulation [2]: 10 fold
11660/11445 value of liver lipid droplets (lipid-chain unsaturation) (UPP-1-TG mice [3]): 0.3
reduction of liver lipid accumulation (UPP-1-TG mice [4]): ~15 fold
